Assay results: patent US11214803B2, “Modulators of YAP1 expression” (Ionis Pharmaceuticals, Inc., priority 2019, dated 2022)
Strand notation (5' to 3'): a small letter for the sugar, then the base; units joined by * are phosphorothioate-linked, units joined directly phosphodiester-linked; [ ] holds rarer units or linkages, { } end groups; capitals alone tell only the bases. e = 2'-O-(2-methoxyethyl) (MOE); k = constrained ethyl (cEt); [5mC] = 5-methylcytosine; d = 2'-deoxy (DNA); m = 2'-O-methyl

System: Yap1 mRNA
Test: Dose-dependent inhibition of human Yap1 in SNU-449 cells (Example 9, RTS36584)
Type: cell-based
Settings: free uptake; for % UTC (Yap1 mRNA): approximately 48 hours; for IC50: linear regression on a log/linear plot
How it was run: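 SNU-449 cells (10,000/well) took up modified oligonucleotides by free uptake at a range of doses for about 48 h. Yap1 mRNA was quantified with primer-probe set RTS36584, normalised to RIBOGREEN total RNA and expressed as % untreated control; IC50 from linear regression on log/linear plot.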

Substance | % UTC (Yap1 mRNA) (31.3 nM) | % UTC (Yap1 mRNA) (125.0 nM) | % UTC (Yap1 mRNA) (500.0 nM) | % UTC (Yap1 mRNA) (2000.00 nM) | IC50
1198611 (kA*kG*kT*dG*dT*dA*dT*dG*dT*d[5mC]*dA*dG*kA*kA*kG*eA; antisense) [compound 1198611] | 37 % UTC | 19 % UTC | 4 % UTC | 1 % UTC | < 30 nM
1198243 (kG*kA*dT*dT*dT*dA*dG*dG*dA*dT*dG*e[5mC]*eA*eT*kG*kG; antisense) [compound 1198243] | 55 % UTC | 28 % UTC | 10 % UTC | 5 % UTC | < 30 nM
1197309 (kG*kT*kA*dA*mU*dA*dT*dT*dG*d[5mC]*dA*dA*dT*k[5mC]*kT*kG; antisense) [compound 1197309] | 91 % UTC | 63 % UTC | 30 % UTC | 9 % UTC | 200 nM
1197213 (kT*kG*kT*dA*dT*dG*dT*d[5mC]*dA*dG*dA*dA*dG*kA*kG*kT; antisense) [compound 1197213] | 87 % UTC | 46 % UTC | 14 % UTC | 2 % UTC | 100 nM
1198857 (kT*k[5mC]*dT*dT*dA*dT*dA*dT*dG*dG*dT*kT*eT*kT*eG*kT) [compound 1198857] | 78 % UTC | 44 % UTC | 13 % UTC | 4 % UTC | 100 nM
1198664 (kG*k[5mC]*dT*dT*dT*dG*dG*dA*dA*dG*dA*dT*k[5mC]*eT*kG*eA; antisense) [compound 1198664] | 52 % UTC | 33 % UTC | 14 % UTC | 5 % UTC | < 30 nM
1200798 (kT*kA*kT*dT*dA*mG*dA*dG*dT*dA*dT*dG*dT*kG*kG*k[5mC]; antisense) [compound 1200798] | 77 % UTC | 44 % UTC | 17 % UTC | 7 % UTC | 100 nM
1198596 (k[5mC]*kT*k[5mC]*dT*dT*dA*dT*dA*dT*dG*dG*dT*kT*kT*kT*eG; antisense) [compound 1198596] | 73 % UTC | 40 % UTC | 14 % UTC | 4 % UTC | 100 nM
1198799 (k[5mC]*eT*kA*dA*dG*dT*dA*dA*dG*dG*dT*dT*eT*e[5mC]*k[5mC]*k[5mC]; antisense) [compound 1198799] | 62 % UTC | 35 % UTC | 13 % UTC | 4 % UTC | 100 nM
1198959 (kA*kG*dT*dG*dT*dA*dT*dG*dT*d[5mC]*dA*kG*dA*kA*dG*kA; antisense) [compound 1198959] | 62 % UTC | 28 % UTC | 8 % UTC | 2 % UTC | 40 nM
1198290 (kT*kG*kG*dA*dA*dA*dT*dT*dG*dT*d[5mC]*dT*k[5mC]*eA*kT*eG; antisense) [compound 1198290] | 60 % UTC | 39 % UTC | 20 % UTC | 10 % UTC | 100 nM
1198958 (kT*kG*dT*dA*dT*dG*dT*d[5mC]*dA*dG*dA*kA*dG*kA*dG*kT; antisense) [compound 1198958] | 68 % UTC | 39 % UTC | 16 % UTC | 5 % UTC | 100 nM
1198918 (kG*k[5mC]*dA*d[5mC]*dT*dT*dT*dT*dA*d[5mC]*dA*kT*dT*kA*dG*kG) [compound 1198918] | 60 % UTC | 33 % UTC | 13 % UTC | 9 % UTC | 50 nM
1197223 (kT*kA*kA*dG*dT*dA*dA*dG*dG*dT*dT*dT*d[5mC]*k[5mC]*k[5mC]*kA; antisense) [compound 1197223] | 88 % UTC | 55 % UTC | 25 % UTC | 8 % UTC | 200 nM
1198546 (kG*kA*kA*dA*dT*dT*dG*dT*d[5mC]*dT*d[5mC]*dA*kT*kG*k[5mC]*e[5mC]) [compound 1198546] | 70 % UTC | 42 % UTC | 18 % UTC | 6 % UTC | 100 nM
1198578 (GCTTTGGAAGATCTGA; modified gapmer, chemistry not fully specified) [compound 1198578] | 73 % UTC | 45 % UTC | 25 % UTC | 12 % UTC | 100 nM
